This note sets out measurements from PubChem BioAssay AID179 (DTP/NCI, 2004).

The structures appear in SMILES notation. “And” between values parts separate entries of the source, which are not always exact repeats. Equal values may be shown once. The source made the active and inactive calls.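 The calls were made as follows: active = compounds giving half or more protection of infected cells from virus-caused growth loss, again on retest; inactive = the rest.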 Where a SMILES comes first, the peptide text is derived from it. Bridges are numbered along the chain shown (N, C = ends). Roman numbers before positions name the chains, in order.

This assay relates to CEM cells HIV-1 protection, formazan growth assay. In words: NCI AIDS Antiviral Assay. The settings on record: for IC50: measured here: growth of uninfected CEM cells. An outline of the steps: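 Human CEM cells, uninfected and HIV-1-infected, received five drug concentrations, and growth was read by soluble formazan assay. Compounds giving at least 50% protection were retested; reproducible 100% protection defined confirmed active.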

In general, EC50 refers to the concentration that produces a half-maximal response. What is called IC50 is the concentration at which inhibition is half-maximal. Low readings indicate greater potency in that assay, high ones weaker potency in that assay. In the case of `O=S(=O)(c1ccccc1)C1(CCC2OCCO2)C=CC2(CC1)OCCO2` (stereo not given), the EC50 is above 200 µM and the IC50 was above 200 µM. Regarding `Cc1ccccc1-n1c(=O)sc2c(=O)n(-c3ccccc3)c(=S)[nH]c21`, the EC50 was above 2.82 µM and the IC50 was above 2.82 µM. On to `O=C(OC[C@]12OC1C=C[C@H](OC(=O)c1ccccc1)C2O)c1ccccc1` (stereo not given in full), for which the EC50 was above 24.5 µM and the IC50 is 23.4 µM. Consider `CC1=C(C)CC2(SC1)C(=O)c1ccccc1C2=O`, for which the result was inactive.

`CCn1c2ccccc2c2ccc(C3C(C(=O)OC)=C(C)NC(C)=C3C(=O)OC)cc21`: the outcome was inactive. As for `Clc1ccc(Nc2ncco2)cc1Cl`, the EC50 was above 200 µM and the concentration for half-maximal inhibition (IC50) was 107 µM. With `CCN(CC)CC(=O)Nc1cc(Cl)ccc1C`, the EC50 was above 200 µM and the IC50 was above 200 µM.

Consider `O=C1CCCC2=C1CC1=C(CCCC1=O)N2c1ccccc1`, for which the EC50 is above 100 µM and the IC50 is above 100 µM. As for `CCOC(=O)c1ccc(C(O)CC(=O)OC(C)(C)C)[nH]1` (stereo not given), the EC50 was above 200 µM and the 50% inhibitory concentration (IC50) amounted to 38 µM. With `CCCCCCCCCCCCCCCCOP(=O)(O)OCC(NC(C)=O)C(=O)O` (stereo not given), the EC50 was above 200 µM and the IC50 is 63.1 µM. For `COc1cc(N=Nc2c(S(=O)(=O)O)cc3cc(NC(=O)Nc4ccc5c(O)c(N=Nc6ccc7cc(S(=O)(=O)O)ccc7c6)c(S(=O)(=O)O)cc5c4)ccc3c2O)c(C)cc1N`, the outcome was active.

For `C/C1=C\[C@@H](O)C(=O)/C=C/C=C\c2csc(n2)[C@@H](C)NC(=O)C[C@@]2(CC1)S(=O)SC(=O)[C@]2(C)O` (stereo not given in full), the EC50 is above 1.32 µM and the IC50 worked out at 0.0055 µM. Regarding `C/C(=C\c1ccc(N(C)C)cc1)C(=O)O`, the EC50 was above 66.1 µM and the IC50 was above 66.1 µM. With `Cc1ccc(SSc2ccc(C(C)(C)C)cc2)cc1`, the EC50 was above 200 µM and the half-inhibitory concentration (IC50) is 4.27 µM. With `COc1cc2c3c(cccc3c1)C(=O)N(CCN(C)C)C2=O`, the EC50 was above 200 µM and the IC50 is 1.26 µM. Regarding `COC1/C=C\OC2(C)Oc3c(C)c(O)c4c(O)c(c(/C=N\N5CCCC5)c(O)c4c3C2=O)NC(=O)/C(C)=C\C=C/C(C)C(O)C(C)C(O)C(C)C(OC(C)=O)C1C` (stereo not given), the outcome was inactive.

For the compound `CC(C)(C)N/N=C(\C(=O)Nc1cccc(Cl)c1)C1C(=O)Nc2ccccc2S1=O` (stereo not given), the outcome was inactive. Regarding `Cc1cc(C)n2c(C)nnc2c1`, the EC50 is above 1550 µM and the IC50 stood at 1120 µM. On to `O=[N+]([O-])c1ccc2nc(Nc3ccccc3)c(Nc3ccccc3)nc2c1`, for which the outcome was inactive. `CCOC(=O)CC(C)C1(C=O)CCCCC1=O` (stereo not given): the EC50 is above 759 µM and the IC50 is above 759 µM. Turning to `Cc1c2n(c3ccccc13)CC1CON(C)C21` (stereo not given), the EC50 was above 1100 µM and the IC50 is 355 µM.

Turning to `CC(C)CC(NC(=O)C(N)CSSCC(N)C(=O)NC(CC(C)C)C(=O)O)C(=O)O` (stereo not drawn) (I: H-Cys-Leu-OH / II: H-Cys-Leu-OH; disulfide I:1-II:1; configuration not given here), the outcome was inactive.

Regarding `O=C(CCBr)N1CCN(C(=O)CCBr)CC1`, the EC50 is above 708 µM and the IC50 stood at 9.33 µM. `CC(=O)NNC(=S)/N=C/C(C(=O)Nc1ccc([N+](=O)[O-])cc1)=C(\C)O`: the EC50 was 117 µM and the half-inhibitory concentration (IC50) was 170 µM. Consider `O=C(O)C1=C(O)C(C(=O)O)C23CCCCCCCCCCC12C(C(=O)O)C(O)=C3C(=O)O` (stereo not given), for which the outcome was inactive.

In the case of `COC(=O)C(CCCCNC(=O)CNC(=O)OCc1ccccc1)NC(=O)C(CCCCNC(=O)CNC(=O)OCc1ccccc1)NC(=O)OCc1ccccc1` (stereo not given), the EC50 was above 100 µM and the IC50 amounted to 66.1 µM.

Turning to `Fc1cccc(Cl)c1C1SCc2nc3ccccc3n21` (stereo not given), the EC50 is 0.0479 µM and the IC50 came to 3.8 µM. In the case of `COc1ccc2c(c1)C1CCN(C)CC1OC2=O` (stereo not given), the result was inactive. As for `CC1(c2cccc(C3CC4(CCC3=O)OCCCCO4)c2)OCCO1` (stereo not given), the EC50 was above 200 µM and the IC50 is above 200 µM. Turning to `O=C(CCCC1Cc2ccccc2C1=O)c1ccccc1` (stereo not given), the EC50 is above 200 µM and the 50% inhibitory concentration (IC50) amounted to 91.2 µM. Turning to `CC(C)(NC(=O)OCc1ccccc1)C(=O)NC(Cc1ccccc1)C(=O)O` (stereo not given) (HELM PEPTIDE1{[O=C(OCc1ccccc1)[*:2]].[Aib].[O=C(O)C(Cc1ccccc1)N[*:1]]}$$$$V2.0), the EC50 is above 200 µM and the IC50 is above 200 µM. Regarding `Cc1c(C)c2c(c(N)c1C#N)C(=O)N(CCN1CCNCC1)C2=O`, the EC50 is above 200 µM and the IC50 was determined as 20.4 µM. `COc1cccc2c1OC1(C=C2)Oc2ccccc2C(=O)N1C` (stereo not given): the EC50 is above 200 µM and the IC50 was 30.9 µM. Regarding `C/C(=C\c1ccc(F)cc1)C(=O)O`, the EC50 was above 275 µM and the IC50 was above 275 µM.

As for `CC(=O)C(C)(O)C(OP(=O)(O)O)c1ccccc1` (stereo not given), the EC50 is above 200 µM and the IC50 is above 200 µM.

As for `O=C(Nc1cc(Cl)c(Cl)cc1Cl)C(=O)C1C(=O)NC(=S)NC1=O`, the outcome was inactive. As for `CC1CC(C)(C)N=C(C(C)CC2CCCCC2)O1` (stereo not given), the EC50 was above 200 µM and the IC50 is 21.9 µM. Turning to `COc1cc2c(c(OC)c1OC)[C@@H]1CCCCC[C@@H]1CCC2=O`, the EC50 was above 251 µM and the IC50 came to 112 µM. For `CCOC(=O)c1c[nH]c2cc(OCC3CC3)c(OCC3CC3)cc2c1=O`, in that order: above 200 µM and above 200 µM. For the compound `COc1ccccc1C(N)c1ccccc1` (stereo not given), the EC50 is above 501 µM and the IC50 came out at 89.1 µM.

`COc1ccccc1C1=NC(C)(C)CO1`: the EC50 is above 1230 µM and the IC50 was above 1230 µM.

Take `OC(Cc1ccc(Br)cc1)CN1CCC(c2ccccc2)CC1` (stereo not given): the EC50 was above 229 µM; the half-maximal inhibitory concentration (IC50) was 17.8 µM and 9.55 µM.

As for `Cc1ccc(C(=C2Sc3ccccc3S2)C(=C2Sc3ccccc3S2)c2ccc(C)s2)s1`, the EC50 was above 200 µM and the IC50 is above 200 µM. `CCCCC1(O)CC2CC1C(C)C2(C)C` (stereo not given): the EC50 was above 200 µM and the IC50 is above 200 µM. With `CCOC(=O)C12OC(CCC1=O)C(C(=O)OC)=C2C(=O)OC` (stereo not given), the EC50 was above 200 µM and the IC50 is above 200 µM. Consider `O=C1CC(c2ccccc2)NN1c1ccccc1` (stereo not given), for which the result was inactive.

For the compound `Nc1ccc2c(c1)C(=O)N1CCC[C@H]1C(=O)N2`, the EC50 is above 200 µM and the IC50 is above 200 µM. Regarding `C[C@]12CCC(=O)O[C@H]1CCCCO2`, the EC50 is above 200 µM and the IC50 was above 200 µM.

As to `CN1C(=O)C(C)(C)C2(SC(C)(C)C2(C)C)N(C)C1=S` (stereo not given), the EC50 was above 24 µM and the IC50 was above 24 µM.

Regarding `CCOC(=O)Cn1c(=O)c2nc(SC)sc2n(-c2ccccc2)c1=O`, the EC50 is above 200 µM and the IC50 was above 200 µM. With `C/C(CC1C2CCCC1C2)=N\NC(N)=O` (stereo not given), the EC50 is above 100 µM and the IC50 is above 100 µM.

Consider `Cc1cc(S(=O)(=O)Nc2n[nH]c(Nc3ccccc3)n2)c(SSc2cc(Cl)c(C)cc2S(=O)(=O)Nc2n[nH]c(Nc3ccccc3)n2)cc1Cl`, for which the EC50 was 83.2 µM and the IC50 stood at 95.5 µM. For the compound `COC12C(COC(N)=O)C3=C(C(=O)C(C)=C(N)C3=O)N1CC1C2N1C` (stereo not given), the EC50 is above 724 µM and the concentration for half-maximal inhibition (IC50) is 0.417 µM. For `NC1(C(=O)O)CCCCC1c1ccccc1` (stereo not given), the EC50 is above 42.7 µM and the IC50 is above 42.7 µM.

With `COc1c(Cl)cc(Cc2cc(Cl)c(OC)c([N+](=O)[O-])c2)cc1[N+](=O)[O-]`, the EC50 is above 200 µM and the IC50 is above 200 µM. With `O=c1nc2n(cc1/C=C\Br)C1CC(O)C(CO2)O1` (stereo not given), the result was inactive. For the compound `CC(=O)SCCC(NC(=S)Nc1ccccc1)P(=O)(Oc1ccccc1)Oc1ccccc1` (stereo not given), the EC50 was above 200 µM and the IC50 turned out to be 49 µM. For `CCC(Sc1cc(Cl)c(C)cc1S(=O)(=O)Nc1nc(N)nc(N(C)C)n1)C(=O)O` (stereo not given), the result was inactive. With `CN(C)c1nc(=Nc2ccc3ccccc3c2)ss1`, the outcome was inactive. As to `Clc1ccc(C2=Nc3ccccc3SC(c3cccs3)C2)cc1` (stereo not given), the EC50 is above 7.59 µM and the IC50 is above 7.59 µM. Consider `COc1ccc(/C=C/C(=O)OC/C=C/c2ccc3c(c2)OCO3)cc1OC`, for which the EC50 is above 200 µM and the IC50 came to 102 µM. On to `c1ccc2c(c1)OCc1nccn1-2`, for which the EC50 is above 200 µM and the IC50 is 97.7 µM.

With `Fc1ccc2c3c([nH]c2c1)CCNC3`, the EC50 is above 200 µM and the IC50 was above 200 µM.

Take `[Cl-].[Co+2].c1cnc2c(c1)ccc1cccnc12.c1cnc2c(c1)ccc1cccnc12.c1cnc2c(c1)ccc1cccnc12`: the EC50 is above 100 µM and the IC50 was found to be 0.977 µM.

As to `O=C1OC(c2ccccc2)=N/C1=C\c1ccc(Cl)cc1Cl`, the EC50 was above 200 µM and the IC50 came out at 97.7 µM. Taken in the same sequence, the figures for `CCOC(=O)C(C)C(CCC#N)(C(=O)OCC)C(=O)OCC` (stereo not given) were above 200 µM and above 200 µM. On to `COc1ccc(C(Nc2ccc([N+](=O)[O-])cc2)P(=O)(c2ccccc2)c2ccccc2)cc1` (stereo not given), for which the EC50 is above 200 µM and the IC50 came to 10.5 µM. Consider `COc1c(Cl)cc(C(=CCCCCN[C@H]2CC[C@@]3(C)[C@@H](CC[C@@H]4[C@@H]3CC[C@]3(C)[C@@H](C(C)CCCC(C)C)CC[C@@H]43)C2)c2cc(Cl)c(OC)c(C(=O)O)c2)cc1C(=O)O` (stereo not given in full), for which the EC50 was above 200 µM and the IC50 was above 200 µM. With `CCOC(=O)c1sc(SC)nc1N`, the EC50 was above 200 µM and the IC50 was above 200 µM. As to `C=C(C)[C@@]1(O[Si](C)(C)C)CCCC[C@@H]1CC(Sc1ccccc1)Sc1ccccc1`, the EC50 was above 200 µM and the IC50 worked out at 11.5 µM. With `CC(=O)Nc1cc2cc(NS(=O)(=O)c3ccc(Cl)c(Cl)c3)ccc2oc1=O`, the EC50 is above 47.9 µM and the IC50 is above 47.9 µM. With `CCCCCC(CO)C(O)(C(F)(F)F)C(F)(F)F` (stereo not given), the EC50 was above 200 µM and the IC50 was 70.8 µM.
